One assay deals with 3T3 mouse fibroblast. Kind of assay: In vitro scratch assay. The assay is classed as cell-based. The conditions noted are these: 3000 μM in culture medium, followed up to 12 hrs post scratching, linear regression. The procedure: The compounds of Formula (1) and (1a) were also tested by means of an in vitro model of wound healing. An in vitro scratch assay was performed as was described in Nature Protocols by Liang et al., 2007. In short, 3T3 mouse fibroblast were seeded onto a fibronectin coated 6-well plate and the confluent monolayers were scratched with a 200 μl pipette tip to obtain a linear gap in the monolayer. The closure of this monolayer was then followed up to 12 hrs post scratching. In order to evaluate the effect of the compound (isosorbide, isoidide and isomannide) either 30 μM or 3000 μM of the test compound were added to the culture medium. The increased dose was applied as the model cannot be entirely related to the in vivo situation as the closure time of this model is considerably faster as the in vivo wound (<18 hrs vs. weeks, resp.). The basic medium comprised DMEM, FCS 5%, HEPES 20 mM, L-glutamine 4 mM and 1% pen/strep. Hereto either nothing or the aforementioned concentrations of test compounds were added.

Assay [1] deals with full-thickness skin wounds. Kind of assay: Mouse full-thickness skin wound model, scar analysis by histology. The conditions noted are these: for reduction in scar index: full thickness excisional wounds in mice, same application formulation, versus control group. The assay is classed as in vivo. The method, then: The mouse model used here can be considered one of the simplest and standard murine models for investigating scar formation and wound healing.
Mice were weighed and then anaesthetized with 5% isoflurane in air for induction and then administered 2.5-3% of isoflurane in air for the remainder of the procedure. The animals were administered Tramal (Tramadol) intraperitoneally for analgesia at a 0.1 mg/kg dose. Before surgery the back of the mice was shaved and disinfected with isobetadine soap, rinsed with water and then swabbed with iodium alcohol.
The back of the mice was shaved and four full-thickness skin wounds were performed by cutting the folded skin on the back of the mice with a 7.5 mm×3 mm elliptical biopsy punch (Elliptical Excisional Instrument, Acuderm Inc.). The skin on the back was raised and folded at the level of the vertebral column by using the thumb and the index finger. The folded skin was then placed on a wood tongue depressor with the animal laying on one side and two wounds were performed through the folded skin by using an elliptical biopsy punch (Elliptical Excisional Instrument, Acuderm Inc.), resulting in four wounds on the back skin: two on the right of the vertebral column and two on the left (FIG. 9). The epidermis, the dermis and the fat tissue in the wound was carefully removed without touching other tissues. The wounds were then immediately treated with topical application of either the hydrogel or the ointment (glycerol+HEPES buffer) formulation containing the active substance (T1 and T2) or vehicle (Tv) and one wound was (Ts) left untreated (FIG. 9). The position of the wounds was randomised according to a list. The wound site was then covered with OP-Film (Somed International, the Netherlands) (FIG. 9). The borders were then fixed with cyanoacrylate glue (Loctite).
This model is identical to the excisional model above except that the wounds were closed with three sutures.
The treatment was repeated at the day 1, 2, 3 and 4 post-surgery for a total of 5 treatments in the first 5 days of healing. At each time point the mice were briefly anaesthetized with isoflurane and a new dose of ointment was injected through the film onto the wound, after which the animal was left to recover. At day 5 all films were removed.
After 14 days the mice were sacrificed under isoflurane anaesthesia by cervical dislocation to harvest the regenerated tissue. At sacrifice the mice were weighed and a gross necropsy was performed during which the following tissues are harvested:
Skin samples were also taken. The back of the mouse was carefully shaved paying careful attention to not touch the wound area. […]
The extent of scarring was measured in accordance with the procedure set out by Khorasani et al (2011). […]

For the next assay, the system named is S. aureus. The conditions noted are these: cited from earlier work.
In assay [2] the test system is infected and other superficial wounds. The conditions noted are these: 120 patients, wounds treated with sugar; cited from earlier work.

The values that follow come from US20160199343A1, “COMPOUNDS AND FORMULATIONS FOR THE TREATMENT OF WOUNDS” (NITTO DENKO CORPORATION, priority 2013, published 2016).

Turning to `O[C@H]1CO[C@H]2[C@@H]1OC[C@@H]2O` [Isoidide, 1,4:3,6-Dianhydro-D-iditol], the “effect on closure speed (reduction)” value with 3T3 mouse fibroblast is recorded as 27%. The “reduction in scar index” value in assay [1] was determined as 44%.

As for `O[C@@H]1CO[C@H]2[C@@H]1OC[C@H]2O` [Isomannide, 1,4:3,6-dianhydro-D-mannitol], in the assay on 3T3 mouse fibroblast, the “effect on closure speed (reduction)” value came to 23%. Also, the “reduction in scar index” value in assay [1] was 38%.

Consider `O[C@@H]1CO[C@H]2[C@@H]1OC[C@@H]2O` [Isosorbide], for which the “effect on closure speed (reduction)” value in the assay on 3T3 mouse fibroblast was determined as 10%. Also, the “Scar index compared to Vehicle-treated / control group (statistics)” value in assay [1] (1-way ANOVA with Dunnet's comparison, p<0.05) was “significantly different from Control and Vehicle”. In assay [1] (mouse wounds, upon administration), the Collagen organisation trend entry is on record as “increased values”.

As to `OC[C@H]1O[C@@](CO)(O[C@H]2O[C@H](CO)[C@@H](O)[C@H](O)[C@H]2O)[C@@H](O)[C@@H]1O` [sugar, sucrose], the “sugar solution concentration affecting complete in vitro growth of S. aureus” value with S. aureus was 183 g/100 g water. Moreover, in assay [2], the curing rate is 99.2%.
